Results: ChEMBL document CHEMBL1145577, “IRAK-4 inhibitors. Part III: a series of imidazo[1,2-a]pyridines” (Bioorg Med Chem Lett, 2008)

What was measured:
[1] = biological target: T1, Interleukin-1 receptor-associated kinase 4 (Homo sapiens, UniProt Q9NWZ3); test: Inhibition of IRAK4
T1 sequence (Q9NWZ3 whole entry): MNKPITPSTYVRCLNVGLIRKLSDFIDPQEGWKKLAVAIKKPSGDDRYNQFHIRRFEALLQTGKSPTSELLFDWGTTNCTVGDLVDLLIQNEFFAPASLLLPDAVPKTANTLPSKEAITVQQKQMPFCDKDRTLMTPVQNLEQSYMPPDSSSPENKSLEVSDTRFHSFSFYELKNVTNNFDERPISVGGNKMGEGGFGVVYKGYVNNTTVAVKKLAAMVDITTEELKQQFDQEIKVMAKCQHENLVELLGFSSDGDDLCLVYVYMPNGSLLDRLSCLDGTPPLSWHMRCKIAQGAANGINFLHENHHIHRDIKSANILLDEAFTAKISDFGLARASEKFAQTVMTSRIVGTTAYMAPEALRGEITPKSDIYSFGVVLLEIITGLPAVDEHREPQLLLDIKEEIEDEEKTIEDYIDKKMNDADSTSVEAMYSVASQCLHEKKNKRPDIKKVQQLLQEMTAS

Cytochrome P450 3A4 = Cytochrome P450 3A4 (Homo sapiens, UniProt P08684); test: Inhibition of CYP3A4; type: ADME; design: concentration or dose not given beside the values
Sequence of Cytochrome P450 3A4 (P08684 whole entry): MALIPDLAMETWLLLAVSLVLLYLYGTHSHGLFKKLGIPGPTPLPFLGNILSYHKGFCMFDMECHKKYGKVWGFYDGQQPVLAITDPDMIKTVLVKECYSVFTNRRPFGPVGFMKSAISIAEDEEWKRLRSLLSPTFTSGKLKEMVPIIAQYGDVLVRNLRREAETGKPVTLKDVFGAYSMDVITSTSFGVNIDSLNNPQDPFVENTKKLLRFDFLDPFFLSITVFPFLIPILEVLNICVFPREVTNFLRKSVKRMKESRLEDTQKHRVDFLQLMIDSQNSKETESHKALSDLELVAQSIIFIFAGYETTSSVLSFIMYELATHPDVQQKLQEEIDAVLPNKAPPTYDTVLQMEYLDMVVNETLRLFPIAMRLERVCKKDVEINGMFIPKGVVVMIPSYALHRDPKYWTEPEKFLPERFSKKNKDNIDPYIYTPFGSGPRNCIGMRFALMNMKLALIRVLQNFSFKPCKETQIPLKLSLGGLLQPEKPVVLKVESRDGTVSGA

[2] = biological target: Interleukin-1 receptor-associated kinase 1 (Homo sapiens, UniProt P51617); test: Inhibition of IRAK1
Sequence of Interleukin-1 receptor-associated kinase 1 (P51617 whole entry): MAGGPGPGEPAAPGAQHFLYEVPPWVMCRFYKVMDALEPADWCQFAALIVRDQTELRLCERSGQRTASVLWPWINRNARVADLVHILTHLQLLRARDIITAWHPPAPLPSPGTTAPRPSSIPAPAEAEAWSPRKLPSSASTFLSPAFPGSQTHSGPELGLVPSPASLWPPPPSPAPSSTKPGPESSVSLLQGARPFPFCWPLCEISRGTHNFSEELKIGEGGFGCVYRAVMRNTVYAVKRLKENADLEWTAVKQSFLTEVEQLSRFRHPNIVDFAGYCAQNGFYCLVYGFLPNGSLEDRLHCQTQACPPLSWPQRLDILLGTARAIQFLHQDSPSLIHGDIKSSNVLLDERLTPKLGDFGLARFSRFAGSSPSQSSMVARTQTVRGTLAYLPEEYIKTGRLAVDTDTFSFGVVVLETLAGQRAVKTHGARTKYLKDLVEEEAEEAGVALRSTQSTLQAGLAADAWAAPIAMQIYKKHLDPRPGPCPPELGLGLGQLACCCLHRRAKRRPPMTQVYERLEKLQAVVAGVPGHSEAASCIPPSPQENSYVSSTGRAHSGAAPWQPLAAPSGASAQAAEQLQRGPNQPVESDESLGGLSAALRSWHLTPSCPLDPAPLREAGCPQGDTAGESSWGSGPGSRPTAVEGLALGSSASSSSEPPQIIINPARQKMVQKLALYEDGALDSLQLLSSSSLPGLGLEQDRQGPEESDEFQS

Cytochrome P450 2D6 = Cytochrome P450 2D6 (Homo sapiens, UniProt P10635); test: Inhibition of CYP2D6; type: ADME
Sequence of Cytochrome P450 2D6 (P10635 whole entry): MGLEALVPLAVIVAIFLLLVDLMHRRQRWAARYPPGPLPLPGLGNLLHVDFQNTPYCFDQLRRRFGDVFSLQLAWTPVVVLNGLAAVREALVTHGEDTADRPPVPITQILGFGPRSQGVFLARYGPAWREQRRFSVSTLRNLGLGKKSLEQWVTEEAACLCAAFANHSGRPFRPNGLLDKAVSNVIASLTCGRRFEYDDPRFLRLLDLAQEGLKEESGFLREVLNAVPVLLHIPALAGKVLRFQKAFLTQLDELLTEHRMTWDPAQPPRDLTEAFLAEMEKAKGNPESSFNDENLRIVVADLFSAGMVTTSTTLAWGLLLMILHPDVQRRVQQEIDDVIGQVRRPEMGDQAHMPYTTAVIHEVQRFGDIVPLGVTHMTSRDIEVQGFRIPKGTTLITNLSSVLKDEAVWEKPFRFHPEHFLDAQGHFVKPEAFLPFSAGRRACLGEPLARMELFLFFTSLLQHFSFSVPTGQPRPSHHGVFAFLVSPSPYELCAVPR

PBMC = test: Inhibition of LPS-induced TNFalpha release in human PBMC cells; type: functional
[3] = Intrinsic clearance in rat microsomes at 0.5 uM; type: ADME, Microsome
[4] = Intrinsic clearance in human microsomes at 0.5 uM; type: ADME, Microsome
CYP2D6 [5] = biological target: T2, CYP2D6 (Homo sapiens, UniProt P10635); test: Inhibition of CYP2D6 at 10 uM; type: ADME
T2 sequence (P10635 whole entry): as above

[6] = biological target: T3, Interleukin-1 receptor-associated kinase 4 (Homo sapiens) (UniProt Q9NWZ3); test: Inhibition of IRAK4 at 10 uM
T3 sequence (whole entry): T1 sequence (Q9NWZ3 whole entry)

CYP2D6 [7] = biological target: T2, CYP2D6; test: Inhibition of CYP2D6 at 50 uM; type: ADME

Row | IC50 [1] [nM] | SMILES | further results
1 | 19 | c1cc(N[C@H]2CCCNC2)nc(-c2cnc3ccccn23)c1 | –
2 | 15 | COc1ccc2ncn(-c3cccc(NC4CCNCC4)n3)c2c1 | –
3 | 313 | c1cc(NCC2CCCN2)nc(-c2cnc3ccccn23)c1 (racemic) | –
4 | 1300 | NCCCNc1cccc(-c2cnc3ccccn23)n1 | –
5 | 8100 | CN(C)CCCNc1cccc(-c2cnc3ccccn23)n1 | –
6 | 433 | N#Cc1ccccc1Nc1cccc(-c2cnc3ccccn23)n1 | –
7 | 545 | c1cc(NC2CCNC2)nc(-c2cnc3ccccn23)c1 (racemic) | –
8 | 2 | c1cc(NC2CCNCC2)nc(-c2cnc3ccc(-c4cc[nH]n4)cn23)c1 | –
9 | 208 | COc1ccc2c(c1)ncn2-c1cccc(NC2CCNCC2)n1 | –
10 | 8 | COc1ccc(-c2ccc3ncc(-c4cccc(NC5CCNCC5)n4)n3c2)cn1 | –
11 | 166 | Clc1cc2ncn(-c3cccc(NC4CCNCC4)n3)c2cc1Cl | –
12 | 63 | c1cc(NC2CCNCC2)nc(-c2cnc3ccc(-c4ccc[nH]4)cn23)c1 | –
13 | 181 | COc1cc2ncn(-c3cccc(NC4CCNCC4)n3)c2cc1OC | –
14 | 1130 | Cn1nccc1Nc1cccc(-c2cnc3ccccn23)n1 | –
15 | 1160 | c1ccc(Nc2cccc(-c3cnc4ccccn34)n2)cc1 | –
16 | 112 | Clc1ccc2c(c1)ncn2-c1cccc(NC2CCNCC2)n1 | –
17 | 7 | COc1ccc2ncc(-c3cccc(NC4CNC4)n3)n2c1 | –

Row | IC50 [1] [nM] | SMILES | further results
18 | – | Clc1ccc2ncc(-c3cccc(NC4CCCNC4)n3)n2c1 (racemic) | Inhibition (Cytochrome P450 3A4): 8.6%; IC50 [2]: 175000 nM; Inhibition (Cytochrome P450 2D6): 1.8%; Activity (PBMC): 65 nM; microsomal CLint at 0.5 µM [3]: 78.1 µL/min/mg; microsomal CLint at 0.5 µM [4]: 29.5 µL/min/mg
19 | 39 | c1cc(NC2CNC2)nc(-c2cnc3ccccn23)c1 | –
20 | 1880 | NC1CCN(c2cccc(-c3cnc4ccccn34)n2)CC1 | –
21 | 487 | c1cc(-c2cnc3ccccn23)nc(N2CCCNCC2)c1 | –
22 | 497 | Cn1cnc(CNc2cccc(-c3cnc4ccccn34)n2)c1 | –
23 | – | N#Cc1ccc(Nc2cccc(-c3cnc4ccccn34)n2)cc1 | inhibition [6]: 12%
24 | 10 | Cc1ccc2ncn(-c3cccc(NC4CCNCC4)n3)c2c1 | –
25 | 95 | N#Cc1ccc2ncc(-c3cccc(N[C@@H]4CCCNC4)n3)n2c1 | –
26 | 1080 | Cc1ccc2c(c1)ncn2-c1cccc(NC2CCNCC2)n1 | –
27 | 3030 | c1cc(NCC2CCNCC2)nc(-c2cnc3ccccn23)c1 | –
28 | 49 | CN(C)C(=O)c1ccc2ncc(-c3cccc(NC4CCNCC4)n3)n2c1 | –
29 | 914 | CN1[C@@H]2CC[C@H]1CC(Nc1cccc(-c3cnc4ccccn34)n1)C2 (stereo partly drawn) | –
30 | 5 | NC(=O)c1ccc2ncc(-c3cccc(NC4CCNCC4)n3)n2c1 | –
31 | 7 | Cn1cc(-c2ccc3ncc(-c4cccc(NC5CCNCC5)n4)n3c2)cn1 | –
32 | 3 | Clc1ccc2ncn(-c3cccc(NC4CCNCC4)n3)c2c1 | –
33 | 263 | O=C(c1ccc2ncc(-c3cccc(NC4CCNCC4)n3)n2c1)N1CCOCC1 | –
34 | 535 | NC1CCCN(c2cccc(-c3cnc4ccccn34)n2)C1 (racemic) | –

Row | SMILES | IC50 [1] [nM] | further results
35 | c1cc(-c2cnc3ccccn23)nc(N2C[C@H]3C[C@@H]2CN3)c1 | 126 | –
36 | Clc1ccc2ncc(-c3cccc(NC4CCNC4)n3)n2c1 (racemic) | 1 | Inhibition (Cytochrome P450 3A4): 12%; IC50 [2]: 23000 nM; Inhibition (Cytochrome P450 2D6): 15%; Activity (PBMC): 16 nM; microsomal CLint at 0.5 µM [3]: 49.3 µL/min/mg; microsomal CLint at 0.5 µM [4]: 19.2 µL/min/mg
37 | N#Cc1ccc2ncc(-c3cccc(NC4CCNCC4)n3)n2c1 | 4 | Inhibition (Cytochrome P450 3A4): 22%; IC50 [2]: 96000 nM; Inhibition (Cytochrome P450 2D6): 42%; Activity (PBMC): 200 nM; microsomal CLint at 0.5 µM [3]: 39.9 µL/min/mg; microsomal CLint at 0.5 µM [4]: 8.3 µL/min/mg
38 | Clc1ccc2ncc(-c3cccc(NC4CNC4)n3)n2c1 | 6 | Inhibition (Cytochrome P450 3A4): 11%; IC50 [2]: 195000 nM; Activity (PBMC): 54 nM; microsomal CLint at 0.5 µM [4]: 13 µL/min/mg; inhibition at 10 µM (CYP2D6 [5]): 21%
39 | c1cc(NC2C[C@H]3CC[C@@H](C2)N3)nc(-c2cnc3ccccn23)c1 (stereo partly drawn) | 225 | –
40 | COc1ccc2ncc(-c3cccc(NC4CCNCC4)n3)n2c1 | 6 | Inhibition (Cytochrome P450 3A4): 31%; IC50 [2]: 293000 nM; Activity (PBMC): 220 nM; inhibition at 50 µM (CYP2D6 [7]): 41%; microsomal CLint at 0.5 µM [3]: 5.3 µL/min/mg; microsomal CLint at 0.5 µM [4]: 19.5 µL/min/mg
